Measured values published in patent publication US7396844B1, “Benzamidine derivatives” (Ajinomoto Co., Inc., priority 1997, dated 2008).
Where two headings read alike, the source gives them in different places.

Experiments:
[1] = system: blood plasma; assay: Determination of blood anticoagulating activity by prothrombin time (PT); assay type: biochemical, human; set-up: key: -log of concentration doubling control PT
Method: The blood anticoagulating activity was determined by a prothrombin time (PT) determination method. The PT was determined as follows: The blood was taken from healthy people. […] The blood plasma was separated by the centrifugation. 5 μl of DMSO solution containing a test compound was added to 45 μl of the blood plasma. After the incubation at room temperature for 2 minutes, a test tube containing the blood plasma solution was placed in Sysmex CA-3000 fully automatic blood coagulation determination device (a product of Toa Medical Electronics Co., Ltd), and incubated at 37° C. for 3 minutes. […] PT was automatically determined with the device. A sample containing 5 μl of DMSO in place of the solution of the test compound was used as the control. The negative logarithm (PT2) of the concentration of the test compound which elongated PT of the control to the twice as long was determined, and employed as the index of the blood anticoagulating activity.

[2] = target: T1, human thrombin (Homo sapiens, UniProt P00734); assay: Determination of thrombin-inhibiting activity; assay type: biochemical; settings: same manner as Example 94
T1 construct: human thrombin (a product of SIGMA Co.); purchased SIGMA Co
Method: 130 μl of 100 mM Tris-HCl buffer adjusted to pH 8.4 was added to 10 μl of an aqueous solution of a test compound. Then 10 μl of a solution of human thrombin (a product of SIGMA Co.) adjusted to 2 units/ml with Tris-HCl buffer of pH 8.4 was added to the resultant mixture. […] The absorbance was determined and then the initial reaction rate was determined. A control was prepared in the same manner as that described above except that the solution of the compound to be tested was replaced with 10 μl of tris hydrochloride buffer adjusted to pH 8.4.

[3] = target: T2, activated human blood coagulation factor X (Homo sapiens, UniProt P00742); assay: Determination of activity of inhibiting the activated blood coagulation factor X; assay type: biochemical; settings: same manner as Example 93; for IC50: read-out: Activity of inhibiting activated blood coagulation factor X (pIC50) (converted)
T2 construct: purchased Enzyme Research Co
Method: 130 μl of 100 mM Tris-HCl buffer adjusted to pH 8.4 was added to 10 μl of an aqueous solution of a compound to be tested. Then 10 μl of a 0.5 unit/ml solution of activated human blood coagulation factor X (a product of Enzyme Research Co.) in Tris-HCl buffer hydrochloride of pH 8.4 was added to the resultant mixture. After the incubation at room temperature for 10 minutes, 50 μl of a solution of N-benzoyl-L-isoleucyl-L-glutamyl-glycyl-L-arginyl-p-nitroanilide hydrochloride (a product of Peptide Institute, Inc.) adjusted to 0.8 mM with Tris-HCl buffer (pH 8.4) was added thereto. The absorbance was determined and then the initial reaction rate was determined. A control was prepared in the same manner as that described above except that the solution of the compound to be tested was replaced with 10 μl of Tris-HCl buffer adjusted to pH 8.4.

[4] = Table 3, same manner as Example 184, negative logarithm of concentration doubling PT
[5] = Table 3, read-out: Thrombin inhibiting activity (pIC50) (converted)

T2 sequence (P00742 235-488 limits assumed): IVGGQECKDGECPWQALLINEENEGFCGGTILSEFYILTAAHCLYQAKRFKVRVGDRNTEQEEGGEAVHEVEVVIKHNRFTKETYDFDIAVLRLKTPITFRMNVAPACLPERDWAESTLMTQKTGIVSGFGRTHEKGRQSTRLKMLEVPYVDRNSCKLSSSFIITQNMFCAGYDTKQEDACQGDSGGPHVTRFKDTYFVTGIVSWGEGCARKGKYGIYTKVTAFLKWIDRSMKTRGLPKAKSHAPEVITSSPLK
T2 sequence (P00742 41-179 partner limits assumed): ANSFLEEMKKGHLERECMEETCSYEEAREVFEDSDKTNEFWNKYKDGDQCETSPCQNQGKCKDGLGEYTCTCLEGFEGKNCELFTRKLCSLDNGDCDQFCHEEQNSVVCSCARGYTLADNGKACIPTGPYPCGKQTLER

| Compound | Blood anticoagulating activity (PT2) ([1]; Table 2, negative logarithm of concentration that elongated PT of the control to twice as long, plasma of healthy people) | IC50 ([2]; Table 2, read-out: Thrombin-inhibiting activity (pIC50) (converted)) | IC50 ([3]; Table 2) | Blood anticoagulating activity (PT2) [1, 4] | IC50 [2, 5] | IC50 ([3]; Table 3) | Thrombin inhibiting activity (pIC50) ([2]; Table 3) | Activity of inhibiting activated blood coagulation factor X (pIC50) ([3]; Table 3) |
| --- | --- | --- | --- | --- | --- | --- | --- | --- |
| CC(=N)N1CCC(Oc2ccc(C[C@@H](COc3cc(C(=N)N)ccc3CC(=O)C(=O)O)NS(=O)(=O)c3ccccc3)cc2)CC1.O=C(O)C(F)(F)F.O=C(O)C(F)(F)F [Compound of Ex. 181, 3-[4-amidino-2-[(2S)-3-[4-(1-acetimidoyl-4-piperidyloxy)phenyl]-2-(benzenesulfonylamino)propoxy]phenyl]-2-oxopropionic acid bistrifluoroacetate] | 6.7 | 1580 nM | 20 nM |  |  |  |  |  |
| N=C(N)c1ccc(C(=O)N[C@@H](COc2cc(C(=N)N)ccc2CC(=O)C(=O)O)CC(=O)O)cc1.O=C(O)C(F)(F)F.O=C(O)C(F)(F)F [Compound of Ex. 186, (3R)-3-(4-amidinobenzoylamino)-4-[5-amidino-2-(2-carboxy-2-oxoethyl)phenoxy]butanoic acid bistrifluoroacetate] |  |  |  | 5.9 | 251000 nM | 20 nM |  |  |
| CN(C)C(=O)c1ccc(C(=O)N[C@@H](COc2cc(C(=N)N)ccc2CC(=O)C(=O)O)CC(=O)O)cc1.O=C(O)C(F)(F)F [Compound of Ex. 188, (3R)-4-[5-amidino-2-(2-carboxy-2-oxoethyl)phenoxy]-3-(4-dimethylcarbamoylbenzoylamino)butanoic acid trifluoroacetate] |  |  |  | 5.7 | 398000 nM | 7.94 nM |  |  |
| N=C(N)c1ccc(CC(=O)C(=O)O)c(OC[C@@H](CC(=O)O)NC(=O)c2ccc(C(=O)N3CCCC3)cc2)c1.O=C(O)C(F)(F)F [Compound of Ex. 191, (3R)-4-[5-amidino-2-(2-carboxy-2-oxoethyl)phenoxy]-3-[4-(pyrrolidine-1-carbonyl)benzoylamino]butanoic acid trifluoroacetate] |  |  |  | 6.0 | 200000 nM | 3.98 nM |  |  |
| CC(=N)N1CCC(Oc2ccc(C(=O)N[C@@H](COc3cc(C(=N)N)ccc3CC(=O)C(=O)O)CC(=O)O)cc2)CC1.O=C(O)C(F)(F)F.O=C(O)C(F)(F)F [Compound of Ex. 193, (3R)-4-[5-amidino-2-(2-carboxy-2-oxoethyl)phenoxy]-3-[4-(1-(1-iminoethyl)piperidyl-4-oxy)benzoylamino]butanoic acid bistrifluoroacetate] |  |  |  | 6.2 |  |  | 3.4 | 7.9 |
| N=C(N)c1ccc(CC(=O)C(=O)O)c(OC[C@@H](CC(=O)O)NC(=O)c2ccc(S(=O)(=O)N3CCCC3)cc2)c1.O=C(O)C(F)(F)F [Compound of Ex. 195, (3R)-4-[5-amidino-2-(2-carboxy-2-oxoethyl)phenoxy]-3-[4-(pyrrolidine-1-sulfonyl)benzoylamino]butanoic acid trifluoroacetate] |  |  |  | 5.9 | 31600 nM | 31.6 nM |  |  |
